Laboratory results: ChEMBL document CHEMBL1201861, “Genomics of Drug Sensitity in Cancer screening data, Wellcome Trust Sanger Institute”

Tests used:
Assay in all cases: cells
CP66-MEL = assay type: functional, cell-based, Homo sapiens; settings: Homo sapiens, CP66-MEL;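 also: growth inhibition of CP66-MEL cells determined in a cell viability assay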
Description: SANGER: Inhibition of human CP66-MEL cell growth in a cell viability assay.

D283 Med = assay type: functional, cell-based, Homo sapiens; settings: Homo sapiens, D283 Med
Description: SANGER: Inhibition of human D-283MED cell growth in a cell viability assay.

DSH1 = assay type: functional, cell-based, Homo sapiens; settings: Homo sapiens, DSH1;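 also: growth inhibition of human DSH1 cells, measured with a cell viability readout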
Description: SANGER: Inhibition of human DSH1 cell growth in a cell viability assay.

ES3 = assay type: functional, cell-based, Homo sapiens; settings: Homo sapiens, ES3;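 also: growth inhibition of ES3 cells, read out with a cell viability assay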
Description: SANGER: Inhibition of human ES3 cell growth in a cell viability assay.

ES8 = assay type: functional, cell-based, Homo sapiens; settings: Homo sapiens, ES8;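 also: growth inhibition of human ES8 cells, read out with a cell viability assay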
Description: SANGER: Inhibition of human ES8 cell growth in a cell viability assay.

EW-11 = assay type: functional, cell-based, Homo sapiens; settings: Homo sapiens, EW-11;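 also: growth inhibition of human EW-11 cells, measured with a cell viability assay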
Description: SANGER: Inhibition of human EW-11 cell growth in a cell viability assay.

EW-24 = assay type: functional, cell-based, Homo sapiens; settings: Homo sapiens, EW-24;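 also: human EW-24 cancer cell line, growth inhibition read out via a cell viability assay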
Description: SANGER: Inhibition of human EW-24 cell growth in a cell viability assay.

EW-3 = assay type: functional, cell-based, Homo sapiens; settings: Homo sapiens, EW-3;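 also: cell viability assay read-out, IC50 reflects inhibition of growth of the EW-3 cells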
Description: SANGER: Inhibition of human EW-3 cell growth in a cell viability assay.

GB-1 = assay type: functional, cell-based, Homo sapiens; settings: Homo sapiens, GB-1;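 also: growth of GB-1 cells judged by a viability assay, IC50 marks the concentration inhibiting growth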
Description: SANGER: Inhibition of human GB-1 cell growth in a cell viability assay.

GR-ST = assay type: functional, cell-based, Homo sapiens; settings: Homo sapiens, GR-ST
Description: SANGER: Inhibition of human GR-ST cell growth in a cell viability assay.

HCC2218 = assay type: functional, cell-based, Homo sapiens; settings: Homo sapiens, HCC2218;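 also: cell viability assay read-out, with IC50 given as the concentration that inhibits growth of the cell line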
Description: SANGER: Inhibition of human HCC2218 cell growth in a cell viability assay.

HCE-T = assay type: functional, cell-based, Homo sapiens; settings: Homo sapiens, HCE-T;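 also: cell viability assay read-out, reporting inhibition of HCE-T cell growth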
Description: SANGER: Inhibition of human HCE-T cell growth in a cell viability assay.

HEL = assay type: functional, cell-based, Homo sapiens; settings: Homo sapiens, HEL;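 also: growth inhibition of HEL cells, read out with a cell viability assay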
Description: SANGER: Inhibition of human HEL cell growth in a cell viability assay.

IST-MEL1 = assay type: functional, cell-based, Homo sapiens; settings: Homo sapiens, IST-MEL1;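 also: growth inhibition of the cell line, read out with a cell viability assay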
Description: SANGER: Inhibition of human IST-MEL1 cell growth in a cell viability assay.

JVM-3 = assay type: functional, cell-based, Homo sapiens; settings: Homo sapiens, JVM-3;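 also: growth inhibition of human JVM-3 cells, read out with a cell viability assay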
Description: SANGER: Inhibition of human JVM-3 cell growth in a cell viability assay.

KARPAS-45 = assay type: functional, cell-based, Homo sapiens; settings: Homo sapiens, KARPAS-45;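 also: inhibition of cell line growth, read out through a viability assay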
Description: SANGER: Inhibition of human KARPAS-45 cell growth in a cell viability assay.

KM12 = assay type: functional, cell-based, Homo sapiens; settings: Homo sapiens, KM12;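 also: KM12 cell growth inhibition, read out with a cell viability assay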
Description: SANGER: Inhibition of human KM12 cell growth in a cell viability assay.

KNS-81-FD = assay type: functional, cell-based, Homo sapiens; settings: Homo sapiens, KNS-81-FD;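 also: growth inhibition of KNS-81-FD cells, read out with a cell viability assay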
Description: SANGER: Inhibition of human KNS-81-FD cell growth in a cell viability assay.

LC-2-ad = assay type: functional, cell-based, Homo sapiens; settings: Homo sapiens, LC-2-ad;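 also: growth inhibition of human LC-2-ad cells, read out with a cell viability assay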
Description: SANGER: Inhibition of human LC-2-ad cell growth in a cell viability assay.

LNCaP-Clone-FGC = assay type: functional, cell-based, Homo sapiens; settings: Homo sapiens, LNCaP-Clone-FGC
Description: SANGER: Inhibition of human LNCaP-Clone-FGC cell growth in a cell viability assay.

LU-134-A = assay type: functional, cell-based, Homo sapiens; settings: Homo sapiens, LU-134-A
Description: SANGER: Inhibition of human LU-134-A cell growth in a cell viability assay.

MC116 = assay type: functional, cell-based, Homo sapiens; settings: Homo sapiens, MC116;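 also: growth inhibition of MC116 cells, read out with a cell viability assay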
Description: SANGER: Inhibition of human MC116 cell growth in a cell viability assay.

MEG-01 = assay type: functional, cell-based, Homo sapiens; settings: Homo sapiens, MEG-01;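 also: growth inhibition of MEG-01 cells, read out by a cell viability assay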
Description: SANGER: Inhibition of human MEG-01 cell growth in a cell viability assay.

NCI-H23 = assay type: functional, cell-based, Homo sapiens; settings: Homo sapiens, NCI-H23;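 also: cell viability assay measuring growth inhibition of NCI-H23 cells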
Description: SANGER: Inhibition of human NCI-H23 cell growth in a cell viability assay.

NCI-H526 = assay type: functional, cell-based, Homo sapiens; settings: Homo sapiens, NCI-H526;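 also: growth inhibition of the human NCI-H526 cell line, measured by a cell viability assay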
Description: SANGER: Inhibition of human NCI-H526 cell growth in a cell viability assay.

NCI-H747 = assay type: functional, cell-based, Homo sapiens; settings: Homo sapiens, NCI-H747;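 also: growth inhibition of human NCI-H747 cells, read out by a cell viability assay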
Description: SANGER: Inhibition of human NCI-H747 cell growth in a cell viability assay.

NKM-1 = assay type: functional, cell-based, Homo sapiens; settings: Homo sapiens, NKM-1;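 also: growth inhibition of NKM-1 cells, read out with a cell viability assay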
Description: SANGER: Inhibition of human NKM-1 cell growth in a cell viability assay.

NOMO-1 = assay type: functional, cell-based, Homo sapiens; settings: Homo sapiens, NOMO-1;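 also: growth inhibition of human NOMO-1 cells measured by a cell viability assay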
Description: SANGER: Inhibition of human NOMO-1 cell growth in a cell viability assay.

RH-1 = assay type: functional, cell-based, Homo sapiens; settings: Homo sapiens, RH-1;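 also: growth inhibition of human RH-1 cells, read out with a cell viability assay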
Description: SANGER: Inhibition of human RH-1 cell growth in a cell viability assay.

SH-4 = assay type: functional, cell-based, Homo sapiens; settings: Homo sapiens, SH-4;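 also: growth inhibition of SH-4 cells, read out with a cell viability assay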
Description: SANGER: Inhibition of human SH-4 cell growth in a cell viability assay.

SHP77 = assay type: functional, cell-based, Homo sapiens, SHP-77; settings: Homo sapiens, SHP77;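 also: growth inhibition of human SHP-77 cells measured by a cell viability assay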
Description: SANGER: Inhibition of human SHP-77 cell growth in a cell viability assay.

SK-MEL-2 = assay type: functional, cell-based, Homo sapiens; settings: Homo sapiens, SK-MEL-2;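 also: growth inhibition of human SK-MEL-2 cells measured with a cell viability assay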
Description: SANGER: Inhibition of human SK-MEL-2 cell growth in a cell viability assay.

SK-N-DZ = assay type: functional, cell-based, Homo sapiens; settings: Homo sapiens, SK-N-DZ;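 also: growth inhibition of the cancer cell line, read out through a viability assay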
Description: SANGER: Inhibition of human SK-N-DZ cell growth in a cell viability assay.

SK-N-FI = assay type: functional, cell-based, Homo sapiens; settings: Homo sapiens, SK-N-FI;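 also: cell viability assay measuring growth inhibition of human SK-N-FI cells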
Description: SANGER: Inhibition of human SK-N-FI cell growth in a cell viability assay.

SK-UT-1 = assay type: functional, cell-based, Homo sapiens; settings: Homo sapiens, SK-UT-1;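 also: growth inhibition of SK-UT-1 cells, measured by a cell viability assay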
Description: SANGER: Inhibition of human SK-UT-1 cell growth in a cell viability assay.

SW 954 = assay type: functional, cell-based, Homo sapiens; settings: Homo sapiens, SW 954;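 also: growth inhibition of SW954 human cancer cells, read out as cell viability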
Description: SANGER: Inhibition of human SW954 cell growth in a cell viability assay.

TE-1 = assay type: functional, cell-based, Homo sapiens; settings: Homo sapiens, TE-1
Description: SANGER: Inhibition of human TE-1 cell growth in a cell viability assay.

A388 = assay type: functional, cell-based, Homo sapiens; settings: Homo sapiens, A388;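 also: growth inhibition of human A388 cells, read out with a cell viability assay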
Description: SANGER: Inhibition of human A388 cell growth in a cell viability assay.

A4-Fuk = assay type: functional, cell-based, Homo sapiens; settings: Homo sapiens, A4-Fuk;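 also: growth inhibition of A4-Fuk cells, read out by a cell viability assay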
Description: SANGER: Inhibition of human A4-Fuk cell growth in a cell viability assay.

A498 = assay type: functional, cell-based, Homo sapiens; settings: Homo sapiens, A498;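 also: growth inhibition of human A498 cells, read out with a cell viability assay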
Description: SANGER: Inhibition of human A498 cell growth in a cell viability assay.

ACN = assay type: functional, cell-based, Homo sapiens; settings: Homo sapiens, ACN;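 also: growth inhibition of the human ACN cell line, read out via cell viability testing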
Description: SANGER: Inhibition of human ACN cell growth in a cell viability assay.

BE-13 = assay type: functional, cell-based, Homo sapiens; settings: Homo sapiens, BE-13;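 also: growth inhibition of human BE-13 cells, measured with a cell viability assay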
Description: SANGER: Inhibition of human BE-13 cell growth in a cell viability assay.

TE-12 = assay type: functional, cell-based, Homo sapiens; settings: Homo sapiens, TE-12;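 also: growth inhibition of TE-12 cells, read out by a cell viability assay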
Description: SANGER: Inhibition of human TE-12 cell growth in a cell viability assay.

U-266 = assay type: functional, cell-based, Homo sapiens; settings: Homo sapiens, U-266
Description: SANGER: Inhibition of human U-266 cell growth in a cell viability assay.

U-87 MG = assay type: functional, cell-based, Homo sapiens, U-87MG ATCC; settings: Homo sapiens, U-87 MG;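 also: growth inhibition of the cells measured with a viability assay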
Description: SANGER: Inhibition of human U-87-MG cell growth in a cell viability assay.

CCRF-CEM = assay type: functional, cell-based, Homo sapiens; settings: Homo sapiens, CCRF-CEM;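 also: inhibition of CCRF-CEM cell growth, measured by a cell viability assay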
Description: SANGER: Inhibition of human CCRF-CEM cell growth in a cell viability assay.

COLO-668 = assay type: functional, cell-based, Homo sapiens; settings: Homo sapiens, COLO-668
Description: SANGER: Inhibition of human COLO-668 cell growth in a cell viability assay.

IA-LM = assay type: functional, cell-based, Homo sapiens; settings: Homo sapiens, IA-LM;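 also: cell viability assay measuring growth inhibition of human IA-LM cells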
Description: SANGER: Inhibition of human IA-LM cell growth in a cell viability assay.

COc1cc(N2CCN(C)CC2)ccc1Nc1ncc2c(n1)N(C)c1ccccc1C(=O)N2C
IC50 (CP66-MEL): > 8 µM | IC50 (D283 Med): > 8 µM | IC50 (DSH1): > 8 µM | IC50 (ES3): > 8 µM | IC50 (ES8): 4.16 µM | IC50 (EW-11): > 8 µM | IC50 (EW-24): > 8 µM | IC50 (EW-3): > 8 µM | IC50 (GB-1): > 8 µM | IC50 (GR-ST): 7.68 µM | IC50 (HCC2218): > 8 µM | IC50 (HCE-T): > 8 µM | IC50 (HEL): 5.95 µM | IC50 (IST-MEL1): > 8 µM | IC50 (JVM-3): > 8 µM | IC50 (KARPAS-45): 3.97 µM | IC50 (KM12): > 8 µM | IC50 (KNS-81-FD): > 8 µM | IC50 (LC-2-ad): > 8 µM | IC50 (LNCaP-Clone-FGC): > 8 µM | IC50 (LU-134-A): > 8 µM | IC50 (MC116): 7.22 µM | IC50 (MEG-01): 4.76 µM | IC50 (NCI-H23): > 8 µM | IC50 (NCI-H526): > 8 µM | IC50 (NCI-H747): > 8 µM | IC50 (NKM-1): > 8 µM | IC50 (NOMO-1): > 8 µM | IC50 (RH-1): > 8 µM | IC50 (SH-4): 1.99 µM | IC50 (SHP77): > 8 µM | IC50 (SK-MEL-2): > 8 µM | IC50 (SK-N-DZ): > 8 µM | IC50 (SK-N-FI): > 8 µM | IC50 (SK-UT-1): > 8 µM | IC50 (SW 954): 4.85 µM | IC50 (TE-1): > 8 µM | IC50 (A388): 6.57 µM | IC50 (A4-Fuk): 3.86 µM | IC50 (A498): > 8 µM | IC50 (ACN): > 8 µM | IC50 (BE-13): > 8 µM | IC50 (TE-12): 5.5 µM | IC50 (U-266): > 8 µM | IC50 (U-87 MG): > 8 µM | IC50 (CCRF-CEM): > 8 µM | IC50 (COLO-668): > 8 µM

COc1cc(-c2nn([C@H]3CC[C@H](N4CCN(C(C)=O)CC4)CC3)c3ncnc(N)c23)ccc1NC(=O)c1cc2ccccc2n1C
IC50 (CP66-MEL): > 5.12 µM | IC50 (D283 Med): > 5.12 µM | IC50 (DSH1): > 5.12 µM | IC50 (ES3): > 5.12 µM | IC50 (ES8): > 5.12 µM | IC50 (EW-11): > 5.12 µM | IC50 (EW-24): > 5.12 µM | IC50 (EW-3): > 5.12 µM | IC50 (GB-1): 0.678 µM | IC50 (GR-ST): > 5.12 µM | IC50 (HCC2218): > 5.12 µM | IC50 (HCE-T): > 5.12 µM | IC50 (HEL): > 5.12 µM | IC50 (IA-LM): > 5.12 µM | IC50 (IST-MEL1): 0.838 µM | IC50 (JVM-3): > 5.12 µM | IC50 (KARPAS-45): > 5.12 µM | IC50 (KM12): > 5.12 µM | IC50 (KNS-81-FD): > 5.12 µM | IC50 (LC-2-ad): 0.483 µM | IC50 (LNCaP-Clone-FGC): > 5.12 µM | IC50 (LU-134-A): > 5.12 µM | IC50 (MC116): 0.856 µM | IC50 (MEG-01): 0.169 µM | IC50 (NCI-H23): > 5.12 µM | IC50 (NCI-H526): > 5.12 µM | IC50 (NCI-H747): 2.86 µM | IC50 (NKM-1): > 5.12 µM | IC50 (NOMO-1): > 5.12 µM | IC50 (RH-1): > 5.12 µM | IC50 (SH-4): 0.913 µM | IC50 (SHP77): > 5.12 µM | IC50 (SK-MEL-2): > 5.12 µM | IC50 (SK-N-DZ): > 5.12 µM | IC50 (SK-N-FI): > 5.12 µM | IC50 (SK-UT-1): > 5.12 µM | IC50 (SW 954): 0.696 µM | IC50 (TE-1): 2.05 µM | IC50 (A388): 4.34 µM | IC50 (A4-Fuk): > 5.12 µM | IC50 (A498): > 5.12 µM | IC50 (ACN): > 5.12 µM | IC50 (BE-13): > 5.12 µM | IC50 (TE-12): 0.404 µM | IC50 (U-266): > 5.12 µM | IC50 (U-87 MG): > 5.12 µM | IC50 (CCRF-CEM): > 5.12 µM | IC50 (COLO-668): > 5.12 µM
